Some test systems named below: DLD-1; DMS-114; DMS-273; HOP-18; KM-20L2; LXFL 529; M19-MEL; RXF 631; XF498.
Common to all, as to assay: growth of human tumour cells (NCI), 48 h

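Growth conditions: 96-well plates. Treatment: test compound, 48 hours, 5 concentrations. Analysis: linear interpolation between bracketing concentrations; unreached endpoints set to highest concentration. Here, GI50 denotes the concentration required for 50% inhibition of growth.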 Calls of active or inactive are those of the source. No stated cut-off is given here; in the data, active = GI50 up to about 1.1 µM and inactive = higher.

Results on 26 compounds are retold here after ChEMBL document CHEMBL1201862, “PubChem BioAssay data set” (2004).

Turning to `Cc1nc2c(N)ncnc2o1`, the GI50 with DLD-1, in the experiment on DMS-114, with DMS-273, in the experiment on HOP-18, with KM-20L2 and in the experiment with LXFL 529 was > 100 µM (inactive) throughout. In addition, the GI50 in the experiment with M19-MEL and in the experiment with RXF 631 was > 100 µM (inactive) each time.

As to `O=[N+]([O-])C(=C(c1ccccc1)c1ccccc1)[N+](=O)[O-]`, the GI50 in the experiment with DLD-1 is 3.46 µM (inactive); in the experiment on DMS-114, 18.7 µM (inactive); in the experiment on DMS-273 it was 4.53 µM (inactive); in the experiment on KM-20L2 it was 17.2 µM (inactive); in the experiment on LXFL 529 it was 15.6 µM (inactive).

As for `CC12CCC(=O)N1c1ccc([N+](=O)[O-])cc1N2` (stereo not given), the GI50 with DLD-1, with DMS-114, in the experiment on DMS-273, with HOP-18, in the experiment on KM-20L2 and with LXFL 529 was > 100 µM (inactive) each time. Further, in the experiment on M19-MEL, the GI50 is > 100 µM (inactive).

Consider `CSc1ccc2c(cc1=O)C(NC(=O)c1ccc(OC(C)=O)cc1)CCc1cc(O)c(O)c(O)c1-2` (stereo not given), for which the GI50 in the experiment with DLD-1 was 17.8 µM (inactive); in the experiment with DMS-114, 19.8 µM (inactive); in the experiment on DMS-273, 22.5 µM (inactive); in the experiment on KM-20L2 it was 37.5 µM (inactive); in the experiment on LXFL 529 it was 17.3 µM (inactive); with M19-MEL it was 12.8 µM (inactive).

Take `CN/N=C(\C)CC(=O)Nc1cccc(Cl)c1C`: the GI50 in the experiment on DLD-1 was > 100 µM (inactive); in the experiment with DMS-114 it was > 100 µM (inactive); in the experiment with DMS-273, 53.7 µM (inactive); in the experiment on HOP-18, > 100 µM (inactive); in the experiment with KM-20L2, > 100 µM (inactive); with LXFL 529, > 100 µM (inactive). Moreover, the GI50 in the experiment with M19-MEL, in the experiment on RXF 631 and in the experiment with XF498 was > 100 µM (inactive) each time.

Take `N#CC(C#N)=c1c2nsnc2c(=C(C#N)C#N)c2nsnc12`: the GI50 in the experiment with DLD-1 was 2.03 µM (inactive); in the experiment on DMS-114, 1.91 µM (inactive); in the experiment on DMS-273, 1.57 µM (inactive); in the experiment on HOP-18 it was 2.66 µM (inactive); with KM-20L2 it was 1.8 µM (inactive); in the experiment with LXFL 529, 1.63 µM (inactive).

Take `CCCCN(CCCC)CCCn1cnc2ncccc2c1=O`: the GI50 in the experiment with DLD-1 is > 100 µM (inactive); in the experiment with DMS-114, 53.6 µM (inactive); with DMS-273 it was > 100 µM (inactive); in the experiment with KM-20L2, > 100 µM (inactive); in the experiment with LXFL 529, > 100 µM (inactive); in the experiment on M19-MEL, > 100 µM (inactive). For the same compound, the GI50 in the experiment with XF498 is > 100 µM (inactive).

For the compound `CCCN(CCC)c1c([N+](=O)[O-])cc(C(N)=O)cc1[N+](=O)[O-]`, the GI50 with DLD-1 is > 100 µM (inactive); in the experiment with DMS-114, 71.9 µM (inactive); in the experiment with DMS-273 it was 58.9 µM (inactive); with LXFL 529 it was > 100 µM (inactive); in the experiment on M19-MEL, 48.5 µM (inactive); in the experiment on XF498, 81.3 µM (inactive).

Regarding `O=c1[nH]c2c(c3ccccc13)CCc1ccccc1-2`, the GI50 in the experiment on DMS-114, in the experiment with DMS-273, in the experiment with KM-20L2, in the experiment on LXFL 529 and in the experiment with M19-MEL was > 100 µM (inactive) throughout.

Take `Cc1ccccc1NC(=O)C(=O)c1c(O)c2ccc(O)cc2oc1=O`: the GI50 in the experiment with DLD-1, in the experiment with DMS-114, with DMS-273, in the experiment with HOP-18, with KM-20L2 and with LXFL 529 was > 100 µM (inactive) each time. Moreover, the GI50 in the experiment on M19-MEL and in the experiment on XF498 was > 100 µM (inactive) throughout.

On to `Cc1cc(N)c2cc(NC(=O)CCCCCCCCC(=O)Nc3ccc4nc(C)cc(N)c4c3)ccc2n1`, for which the GI50 in the experiment on DLD-1 is > 100 µM (inactive); in the experiment with DMS-273, 7.19 µM (inactive); with HOP-18 it was > 100 µM (inactive); in the experiment with KM-20L2, 29.1 µM (inactive); in the experiment on LXFL 529, 4.37 µM (inactive); with M19-MEL, 15.4 µM (inactive). The GI50 in the experiment on XF498 was > 27.2 µM (inactive).

For the compound `Cc1cc2c(=O)c3ccc(Cl)cc3[nH]c2c(C(=O)O)c1C`, the GI50 in the experiment on DLD-1, in the experiment on DMS-114, in the experiment on HOP-18, with KM-20L2, in the experiment with LXFL 529 and in the experiment with M19-MEL was > 100 µM (inactive) in each case. In addition, the GI50 in the experiment on XF498 was > 100 µM (inactive).

Regarding `CC(C)C1COC(c2ccc3ccccc3c2-c2c(O[Si](C)(C)C(C)(C)C)ccc3ccccc23)=N1` (stereo not given), the GI50 in the experiment with DLD-1 was 17.1 µM (inactive); in the experiment on DMS-114, 15.6 µM (inactive); in the experiment on DMS-273 it was 21.4 µM (inactive); with KM-20L2 it was 19.5 µM (inactive); in the experiment on LXFL 529, 15.4 µM (inactive); with M19-MEL it was 18.8 µM (inactive). Further, the GI50 in the experiment on RXF 631 was 14.9 µM (inactive); in the experiment with XF498 it was 14.5 µM (inactive).

As for `Cc1nc2c(n1CCC(C)C)C(=O)c1ccccc1C2=O`, the GI50 in the experiment with DLD-1 is 11.1 µM (inactive); with DMS-273, 11 µM (inactive); with KM-20L2 it was 28.5 µM (inactive); in the experiment with LXFL 529, 13.1 µM (inactive); with M19-MEL, 14.5 µM (inactive); in the experiment with XF498, 17.2 µM (inactive).

`COc1c2c(cc3c1C(=O)Cc1ccc4c(c1CN(C)CC3)OCO4)OCO2`: the GI50 is > 100 µM (inactive) with DLD-1; 39.4 µM (inactive) in the experiment on DMS-114; 20.7 µM (inactive) with HOP-18; 38.2 µM (inactive) in the experiment on KM-20L2; > 100 µM (inactive) in the experiment with M19-MEL; 44.8 µM (inactive) in the experiment with RXF 631.

`O=C(NCC#CCO)C(F)(F)F`: the GI50 with DLD-1, with DMS-114, in the experiment on DMS-273, in the experiment with RXF 631 and in the experiment with XF498 was > 100 µM (inactive) throughout.

With `COCOCc1cc(OCc2ccccc2)c(OC)cc1Br`, the GI50 in the experiment on DLD-1 is > 100 µM (inactive); in the experiment with DMS-273, 64.6 µM (inactive); in the experiment on HOP-18, > 100 µM (inactive); in the experiment on KM-20L2, > 100 µM (inactive); in the experiment on M19-MEL, > 100 µM (inactive); with XF498, > 100 µM (inactive).

On to `O=C(CCC(=O)C(C(=O)c1ccccc1)c1ccccc1)Nc1cccc(C(F)(F)F)c1` (stereo not given), for which the GI50 in the experiment with DLD-1, in the experiment on DMS-114, with DMS-273, in the experiment with HOP-18, with KM-20L2 and in the experiment on LXFL 529 was > 100 µM (inactive) each time. Further, the GI50 in the experiment with M19-MEL and with XF498 was > 100 µM (inactive) in each case.

Regarding `COc1ccc(-c2onc(-c3ccc([N+](=O)[O-])cc3)c2C2=NCCN2)cc1`, the GI50 with DLD-1 was 74.1 µM (inactive); in the experiment with HOP-18, 87.5 µM (inactive); in the experiment with KM-20L2 it was > 100 µM (inactive); in the experiment with LXFL 529, 35.5 µM (inactive); in the experiment on M19-MEL, > 100 µM (inactive); with XF498, 66.7 µM (inactive).

Regarding `C=CCN1CCC23c4c5ccc(O)c4OC2C(=NN=C2CCC4(O)C6Cc7ccc(O)c8c7C4(CCN6CC=C)C2O8)CCC3(O)C1C5` (stereo not given), the GI50 in the experiment with DLD-1 is 38.7 µM (inactive); in the experiment on DMS-114, 24.7 µM (inactive); in the experiment with DMS-273, 19.1 µM (inactive); with HOP-18, > 100 µM (inactive); with KM-20L2, 23.3 µM (inactive); in the experiment with LXFL 529 it was 32.1 µM (inactive). Moreover, the GI50 was 20.5 µM (inactive) in the experiment on RXF 631 and 17.3 µM (inactive) in the experiment with XF498.

With `CC(=O)Nc1ccc(OCC(O)CO)cc1` (stereo not given), the GI50 with DLD-1 was 23.2 µM (inactive); in the experiment on DMS-273, > 100 µM (inactive); with HOP-18, > 100 µM (inactive); with KM-20L2 it was > 100 µM (inactive); with LXFL 529, 52.8 µM (inactive); in the experiment with M19-MEL it was > 100 µM (inactive). For the same compound, in the experiment with XF498, the GI50 is > 100 µM (inactive).

Take `CCOC(=O)C1N(S(=O)(=O)c2ccc(C)cc2)CCC12c1ccccc1N(C(C)=O)C2c1ccc(OC)c(OC)c1` (stereo not given): the GI50 is 78.2 µM (inactive) in the experiment on DLD-1; > 100 µM (inactive) with DMS-114; > 100 µM (inactive) with DMS-273; > 100 µM (inactive) in the experiment on KM-20L2; > 100 µM (inactive) in the experiment with LXFL 529; > 100 µM (inactive) in the experiment with M19-MEL. In the experiment on XF498, the GI50 was 21.7 µM (inactive).

Regarding `CC(=O)/C=C/c1ccc(C2CC(C)=Nc3c(ccc4c3C(=O)c3ccccc3C4=O)N2)cc1` (stereo not given), the GI50 with DLD-1 is 24.7 µM (inactive); in the experiment on DMS-114, 34.9 µM (inactive); with DMS-273, 66.1 µM (inactive); with HOP-18 it was > 80.9 µM (inactive); in the experiment on KM-20L2 it was > 100 µM (inactive); in the experiment with M19-MEL, > 62.5 µM (inactive). In addition, in the experiment on XF498, the GI50 is > 100 µM (inactive).

For the compound `CCCCCCCCCCCCCCCCCCNC(=O)OCC(CNS(=O)(=O)CCC[n+]1cccc2ccccc21)COC` (stereo not given), the GI50 in the experiment on DLD-1 is 2.85 µM (inactive); with DMS-114, 1.18 µM (inactive); in the experiment on DMS-273, 0.251 µM (active); with HOP-18, 3.32 µM (inactive); in the experiment with KM-20L2, 0.776 µM (active); in the experiment on LXFL 529, 1.21 µM (inactive). Also, the GI50 was 1.2 µM (inactive) with M19-MEL and 1.43 µM (inactive) with XF498.

On to `COC(=O)C(Cc1c[nH]c2ccccc12)NC(=O)C(Cc1c[nH]c2ccccc12)NC(=O)OCc1ccccc1` (stereo not given), for which the GI50 with DLD-1 is 18.5 µM (inactive); in the experiment on DMS-114, 19.4 µM (inactive); with DMS-273, 16 µM (inactive); in the experiment on KM-20L2 it was 18.2 µM (inactive); in the experiment with LXFL 529, 16.7 µM (inactive); in the experiment on M19-MEL, 18.4 µM (inactive). Also, the values for the GI50 in the experiment with RXF 631 and in the experiment on XF498 were 24 µM (inactive) and 14.8 µM (inactive), respectively.

In the case of `C=CC1=CC(C)C[C@]1(O)C(=O)OC` (stereo not given in full), the GI50 in the experiment on DLD-1 is < 0.01 µM (active); in the experiment with DMS-114, < 0.01 µM (active); in the experiment with DMS-273, < 0.01 µM (active); with HOP-18, > 100 µM (inactive); in the experiment on KM-20L2 it was > 100 µM (inactive); with LXFL 529, < 0.01 µM (active). In addition, the GI50 with M19-MEL, with RXF 631 and with XF498 was < 0.01 µM (active) in each case.
